In brackets after ≈: the same amount, converted by molar mass. Where two headings read alike, the source gives them in different places.
Legend:
Pseudomonas aeruginosa = experiment: MIC in broth against Pseudomonas aeruginosa; type: cell-based; set-up: unit not given beside the values
Method: (§1) The antimicrobial efficacy of twenty-five antimicrobial polymers (and Erythromycin) was evaluated using an MIC assay. For each study, a doubling dilution concentration of each antimicrobial polymer was prepared at 2× the final concentration range (0.12 to 16 μg/mL), and 100 μL of the API-null formulation was dispensed into the negative control wells. Overall, the antimicrobial polymer-containing compositions performed comparably well, or better, against the pathogens, as compared to Erythromycin (ERY).

[1] = tested on: Bordetella bronchiseptica; experiment: MIC in broth against Bordetella bronchiseptica; type: cell-based
Method: as §1

Proteus mirabilis = experiment: MIC in broth against Proteus mirabilis; type: cell-based
Method: as §1

Mannheimia haemolytica = experiment: MIC in broth against Mannheimia haemolytica; type: cell-based
Method: as §1

Streptococcus uberis = experiment: MIC in broth against Streptococcus uberis; type: cell-based
Method: as §1

Streptococcus canis = experiment: MIC in broth against Streptococcus canis; type: cell-based; set-up: unit not given beside the values
Method: as §1

[2] = tested on: E. faecalis (Str-15) ATCC 29212; details: cited from earlier work
[3] = tested on: Staphylococcus aureus (including MRSA); details: S. aureus (Sta-3) ATCC 29213; cited from earlier work
Serratia marcescens = experiment: MIC in broth against Serratia marcescens; type: cell-based; set-up: unit not given beside the values
Method: as §1

Mycoplasma bovis = experiment: organism not typed; type: cell-based
[4] = tested on: Streptococcus dysgalactiae; experiment: MIC in broth against Streptococcus dysgalactiae; type: cell-based
Method: as §1

[5] = tested on: Actinobacillus pleuropneumoniae; experiment: MIC in broth against Actinobacillus pleuropneumoniae; type: cell-based
Method: as §1

[6] = tested on: Pasteurella multocida (Canine and BRD); experiment: MIC in broth against Pasteurella multocida; type: cell-based
Method: as §1

Enterobacter species = experiment: MIC in broth against Enterobacter species; type: cell-based
Method: as §1

Compound: CC[C@H]1OC(=O)[C@H](C)[C@@H](O[C@H]2C[C@@](C)(OC)[C@@H](O)[C@H](C)O2)[C@H](C)[C@@H](O[C@@H]2O[C@H](C)C[C@H](N(C)C)[C@H]2O)[C@](C)(O)C[C@@H](C)C(=O)[C@H](C)[C@@H](O)[C@]1(C)O [Ery, Erythromycin]
- MIC against Pseudomonas aeruginosa (Pseudomonas aeruginosa; strain # 58): >8
- MIC against Pseudomonas aeruginosa (Pseudomonas aeruginosa; strain # 59): >8
- MIC against Pseudomonas aeruginosa (Pseudomonas aeruginosa; strain # 60): >8
- MIC against Pseudomonas aeruginosa (Pseudomonas aeruginosa; strain # 61): >8
- MIC against Pseudomonas aeruginosa (Pseudomonas aeruginosa; strain # 62): >8
- MIC against Pseudomonas aeruginosa (Pseudomonas aeruginosa; strain # 63): >8
- MIC against Pseudomonas aeruginosa (Pseudomonas aeruginosa; strain # 64): >8
- MIC against Pseudomonas aeruginosa (Pseudomonas aeruginosa; strain # 65): >8
- MIC against Pseudomonas aeruginosa (Pseudomonas aeruginosa; strain # 66): >8
- MIC against Pseudomonas aeruginosa (Pseudomonas aeruginosa; strain # 67): >8
- MIC ([1]; isolate # 78 (canine/feline)): 8 µg/mL (≈ 10.9 µM)
- MIC ([1]; isolate # 79 (canine/feline)): 8 µg/mL (≈ 10.9 µM)
- MIC ([1]; isolate # 80 (canine/feline)): 2 µg/mL (≈ 2.73 µM)
- MIC ([1]; isolate # 81 (canine/feline)): 8 µg/mL (≈ 10.9 µM)
- MIC ([1]; isolate # 82 (canine/feline)): 2 µg/mL (≈ 2.73 µM)
- MIC ([1]; isolate # 83 (canine/feline)): 8 µg/mL (≈ 10.9 µM)
- MIC ([1]; isolate # 84 (canine/feline)): 8 µg/mL (≈ 10.9 µM)
- MIC ([1]; isolate # 85 (canine/feline)): > 8 µg/mL
- MIC ([1]; isolate # 86 (canine/feline)): > 8 µg/mL
- MIC ([1]; isolate # 87 (canine/feline)): 8 µg/mL (≈ 10.9 µM)
- MIC (Proteus mirabilis; Proteus mirabilis, isolate # 52): > 8 µg/mL
- MIC against Proteus mirabilis (Proteus mirabilis; isolate # 48): >8 µg/mL
- MIC against Proteus mirabilis (Proteus mirabilis; isolate # 49): >8 µg/mL
- MIC against Proteus mirabilis (Proteus mirabilis; isolate # 50): >8 µg/mL
- MIC against Proteus mirabilis (Proteus mirabilis; isolate # 51): >8 µg/mL
- MIC against Proteus mirabilis (Proteus mirabilis; isolate # 53): >8 µg/mL
- MIC against Proteus mirabilis (Proteus mirabilis; isolate # 54): >8 µg/mL
- MIC against Proteus mirabilis (Proteus mirabilis; isolate # 55): >8 µg/mL
- MIC against Proteus mirabilis (Proteus mirabilis; isolate # 56): >8 µg/mL
- MIC against Proteus mirabilis (Proteus mirabilis; isolate # 57): >8 µg/mL
- MIC (Mannheimia haemolytica; isolate # 158): 4 µg/mL (≈ 5.45 µM)
- MIC (Mannheimia haemolytica; isolate # 159): > 8 µg/mL
- MIC (Mannheimia haemolytica; isolate # 160): 4 µg/mL (≈ 5.45 µM)
- MIC (Mannheimia haemolytica; isolate # 161): > 8 µg/mL
- MIC (Mannheimia haemolytica; isolate # 162): 2 µg/mL (≈ 2.73 µM)
- MIC (Mannheimia haemolytica; isolate # 163): 4 µg/mL (≈ 5.45 µM)
- MIC (Mannheimia haemolytica; isolate # 164): > 8 µg/mL
- MIC (Mannheimia haemolytica; isolate # 165): > 8 µg/mL
- MIC (Mannheimia haemolytica; isolate # 166): 1 µg/mL (≈ 1.36 µM)
- MIC (Mannheimia haemolytica; isolate # 167): 4 µg/mL (≈ 5.45 µM)
- MIC (Streptococcus uberis; isolate # 218): 0.06 µg/mL (≈ 0.0818 µM)
- MIC (Streptococcus uberis; isolate # 219): 0.5 µg/mL (≈ 0.681 µM)
- MIC (Streptococcus uberis; isolate # 220): 0.06 µg/mL (≈ 0.0818 µM)
- MIC (Streptococcus uberis; isolate # 221): 1 µg/mL (≈ 1.36 µM)
- MIC (Streptococcus uberis; isolate # 222): 0.06 µg/mL (≈ 0.0818 µM)
- MIC (Streptococcus uberis; isolate # 223): 0.06 µg/mL (≈ 0.0818 µM)
- MIC (Streptococcus uberis; isolate # 224): 0.06 µg/mL (≈ 0.0818 µM)
- MIC (Streptococcus uberis; isolate # 225): 2 µg/mL (≈ 2.73 µM)
- MIC (Streptococcus uberis; isolate # 226): 0.06 µg/mL (≈ 0.0818 µM)
- MIC (Streptococcus uberis; isolate # 227): 2 µg/mL (≈ 2.73 µM)
- MIC against Streptococcus canis (Streptococcus canis; isolate # 198): 0.06
- MIC against Streptococcus canis (Streptococcus canis; isolate # 199): 0.06
- MIC against Streptococcus canis (Streptococcus canis; isolate # 200): 0.12
- MIC against Streptococcus canis (Streptococcus canis; isolate # 201): 0.06
- MIC against Streptococcus canis (Streptococcus canis; isolate # 202): 0.06
- MIC against Streptococcus canis (Streptococcus canis; isolate # 203): 0.06
- MIC against Streptococcus canis (Streptococcus canis; isolate # 204): 0.06
- MIC against Streptococcus canis (Streptococcus canis; isolate # 205): 0.06
- MIC against Streptococcus canis (Streptococcus canis; isolate # 206): 0.06
- MIC against Streptococcus canis (Streptococcus canis; isolate # 207): 0.06
- Known range (MIC) [2]: 1 to 4 µg/mL
- Known range (MIC) [3]: 0.25 to 1 µg/mL
- MIC against Serratia marcescens (Serratia marcescens; isolate # 68): >8
- MIC against Serratia marcescens (Serratia marcescens; isolate # 69): >8
- MIC against Serratia marcescens (Serratia marcescens; isolate # 70): >8
- MIC against Serratia marcescens (Serratia marcescens; isolate # 71): >8
- MIC against Serratia marcescens (Serratia marcescens; isolate # 72): >8
- MIC against Serratia marcescens (Serratia marcescens; isolate # 73): >8
- MIC against Serratia marcescens (Serratia marcescens; isolate # 74): >8
- MIC against Serratia marcescens (Serratia marcescens; isolate # 75): >8
- MIC against Serratia marcescens (Serratia marcescens; isolate # 76): >8
- MIC against Serratia marcescens (Serratia marcescens; isolate # 77): >8
- MIC (Mycoplasma bovis): 4 µg/mL (≈ 5.45 µM)
- MIC (Mycoplasma bovis; Mycoplasmopsis bovis, isolate # 248 (mastitis), read-out: MIC against Mycoplasma bovis): > 8 µg/mL
- MIC (Mycoplasma bovis; Mycoplasmopsis bovis, isolate # 249 (mastitis), read-out: MIC against Mycoplasma bovis): > 8 µg/mL
- MIC (Mycoplasma bovis; Mycoplasmopsis bovis, isolate # 250 (mastitis), read-out: MIC against Mycoplasma bovis): > 8 µg/mL
- MIC (Mycoplasma bovis; Mycoplasmopsis bovis, isolate # 251 (mastitis), read-out: MIC against Mycoplasma bovis): > 8 µg/mL
- MIC (Mycoplasma bovis; Mycoplasmopsis bovis, isolate # 252 (mastitis), read-out: MIC against Mycoplasma bovis): > 8 µg/mL
- MIC (Mycoplasma bovis; Mycoplasmopsis bovis, isolate # 253 (mastitis), read-out: MIC against Mycoplasma bovis): 4 µg/mL (≈ 5.45 µM)
- MIC (Mycoplasma bovis; Mycoplasmopsis bovis, isolate # 254 (mastitis), read-out: MIC against Mycoplasma bovis): > 8 µg/mL
- MIC (Mycoplasma bovis; Mycoplasmopsis bovis, isolate # 255 (mastitis), read-out: MIC against Mycoplasma bovis): > 8 µg/mL
- MIC (Mycoplasma bovis; Mycoplasmopsis bovis, isolate # 256 (mastitis), read-out: MIC against Mycoplasma bovis): > 8 µg/mL
- MIC (Mycoplasma bovis; Mycoplasmopsis bovis, isolate # 257 (mastitis), read-out: MIC against Mycoplasma bovis): > 8 µg/mL
- MIC ([4]; isolate # 208): 0.06 µg/mL (≈ 0.0818 µM)
- MIC ([4]; isolate # 209): 0.06 µg/mL (≈ 0.0818 µM)
- MIC ([4]; isolate # 210): 0.12 µg/mL (≈ 0.164 µM)
- MIC ([4]; isolate # 211): 0.06 µg/mL (≈ 0.0818 µM)
- MIC ([4]; isolate # 212): 0.12 µg/mL (≈ 0.164 µM)
- MIC ([4]; isolate # 213): 0.12 µg/mL (≈ 0.164 µM)
- MIC ([4]; isolate # 214): 0.06 µg/mL (≈ 0.0818 µM)
- MIC ([4]; isolate # 215): 0.12 µg/mL (≈ 0.164 µM)
- MIC ([4]; isolate # 216): 0.06 µg/mL (≈ 0.0818 µM)
- MIC ([4]; isolate # 217): 0.12 µg/mL (≈ 0.164 µM)
- MIC ([5]; A. pleuro. (AC-1) ATTC 27090, read-out: MIC): 8 µg/mL (≈ 10.9 µM)
- MIC ([5]; isolate # 237 (porcine lung, SRD), read-out: MIC against Actinobacillus pleuropneumoniae): 2 µg/mL (≈ 2.73 µM)
- MIC ([5]; isolates # 228-231, 235 (porcine lung, SRD), read-out: MIC against Actinobacillus pleuropneumoniae): 4 µg/mL (≈ 5.45 µM)
- MIC ([5]; isolates # 232-236 (porcine lung, SRD), read-out: MIC against Actinobacillus pleuropneumoniae): 8 µg/mL (≈ 10.9 µM)
- MIC against Pasteurella multocida ([6]; strain # 168): 0.5
- MIC against Pasteurella multocida ([6]; strain # 169): 1
- MIC against Pasteurella multocida ([6]; strain # 170): 1
- MIC against Pasteurella multocida ([6]; strain # 171): 0.5
- MIC against Pasteurella multocida ([6]; strain # 172): 1
- MIC against Pasteurella multocida ([6]; strain # 173): 2
- MIC against Pasteurella multocida ([6]; strain # 174): 8
- MIC against Pasteurella multocida ([6]; strain # 175): 1
- MIC against Pasteurella multocida ([6]; strain # 176): 0.5
- MIC against Pasteurella multocida ([6]; strain # 177): 2
- MIC against Pasteurella multocida ([6]; strain # 178): 4
- MIC against Pasteurella multocida ([6]; strain # 179): 2
- MIC against Pasteurella multocida ([6]; strain # 180): 2
- MIC against Pasteurella multocida ([6]; strain # 181): 2
- MIC against Pasteurella multocida ([6]; strain # 182): 2
- MIC against Pasteurella multocida ([6]; strain # 183): >8
- MIC against Pasteurella multocida ([6]; strain # 184): 2
- MIC against Pasteurella multocida ([6]; strain # 185): >8
- MIC against Pasteurella multocida ([6]; strain # 186): 2
- MIC against Pasteurella multocida ([6]; strain # 187): >8
- MIC (Enterobacter species; Enterobacter, isolate # 26 (mastitis)): > 8 µg/mL
- MIC against Enterobacter species (Enterobacter species; isolate # 21 (mastitis)): >8 µg/mL
- MIC against Enterobacter species (Enterobacter species; isolate # 22 (mastitis)): >8 µg/mL
- MIC against Enterobacter species (Enterobacter species; isolate # 23 (mastitis)): >8 µg/mL
- MIC against Enterobacter species (Enterobacter species; isolate # 24 (mastitis)): >8 µg/mL
- MIC against Enterobacter species (Enterobacter species; isolate # 25 (mastitis)): >8 µg/mL
- MIC against Enterobacter species (Enterobacter species; isolate # 27 (mastitis)): >8 µg/mL

Source: US10131744B2, “Antimicrobial polyamide compositions and mastitis treatment” (priority 2013, dated 2018)
